Measurements reported in BindingDB's records for doi:10.1111/cbdd.12089 (Southeast University, 2013).

Tests used:
Aurora kinase B = Aurora kinase B (Homo sapiens, UniProt Q96GD4); test: Aurora Kinase Assay
Protocol: (§1) The kinase assay of Aurora A and B was measured using HTRF-kinEASE-STK discovery kit purchased from Cisbio.

Aurora kinase A = target: T1, Aurora kinase A (Homo sapiens, UniProt O14965); test: Aurora Kinase Assay
T1 sequence (O14965 whole entry): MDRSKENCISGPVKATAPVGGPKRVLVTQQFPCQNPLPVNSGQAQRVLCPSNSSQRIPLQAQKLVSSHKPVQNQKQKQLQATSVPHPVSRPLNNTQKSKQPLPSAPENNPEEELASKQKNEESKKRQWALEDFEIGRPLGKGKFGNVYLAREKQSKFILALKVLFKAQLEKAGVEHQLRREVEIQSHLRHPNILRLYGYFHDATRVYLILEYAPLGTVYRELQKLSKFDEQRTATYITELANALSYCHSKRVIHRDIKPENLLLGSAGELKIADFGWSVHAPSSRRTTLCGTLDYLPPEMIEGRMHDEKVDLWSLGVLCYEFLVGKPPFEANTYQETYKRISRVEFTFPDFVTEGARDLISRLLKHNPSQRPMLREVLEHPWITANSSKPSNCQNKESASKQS
Protocol: as §1

Aurora kinase B, sequence (Q96GD4 whole entry): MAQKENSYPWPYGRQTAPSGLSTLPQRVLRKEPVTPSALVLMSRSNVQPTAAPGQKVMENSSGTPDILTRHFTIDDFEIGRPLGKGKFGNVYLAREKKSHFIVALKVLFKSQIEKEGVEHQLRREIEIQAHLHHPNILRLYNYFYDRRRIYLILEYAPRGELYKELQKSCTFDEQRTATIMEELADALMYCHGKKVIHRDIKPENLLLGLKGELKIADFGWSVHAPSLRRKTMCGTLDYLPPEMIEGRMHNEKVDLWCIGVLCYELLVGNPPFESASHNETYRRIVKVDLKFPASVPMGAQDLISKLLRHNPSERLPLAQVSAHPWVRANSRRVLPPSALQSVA

SMILES	IC50 (Aurora kinase B) [nM]	IC50 (Aurora kinase A) [nM]
Cc1ccc(Nc2ncnc3cc(OCCCN4CCOCC4)ccc23)cc1Nc1ncc(-c2cccnc2)cn1 [4-Aminoquinazoline derivative, 6a]	191	179
Cc1ccc(Nc2ncnc3cc(OCCCN4CCCCC4)ccc23)cc1Nc1ncc(-c2cccnc2)cn1 [4-Aminoquinazoline derivative, 6b]	489	323
CCN(CC)CCCOc1ccc2c(Nc3ccc(C)c(Nc4ncc(-c5cccnc5)cn4)c3)ncnc2c1 [4-Aminoquinazoline derivative, 6c]	202	98
Cc1ccc(Nc2ncnc3cc(OCCCN4CCCC4)ccc23)cc1Nc1ncc(-c2cccnc2)cn1 [4-Aminoquinazoline derivative, 6d]	145	77
CCOC(=O)c1csc2cc(Nc3ncnc4cc(OCCCN5CCN(C)CC5)ccc34)ccc12 [4-Aminoquinazoline derivative, 6f]	136	111
CCOC(=O)c1csc2cc(Nc3ncnc4cc(OCCCN5CCCCC5)ccc34)ccc12 [4-Aminoquinazoline derivative, 6g]	–	822
CCOC(=O)c1csc2cc(Nc3ncnc4cc(OCCCN5CCCC5)ccc34)ccc12 [4-Aminoquinazoline derivative, 6h]	146	62
CCOC(=O)c1csc2cc(Nc3ncnc4cc(OCCCN(CC)CC)ccc34)ccc12 [4-Aminoquinazoline derivative, 6i]	893	788
